Results published in PMC6212778, “Site-specific amino acid substitution in dodecameric peptides determines the stability and unfolding of c-MYC quadruplex promoting apoptosis in cancer cells” (Nucleic Acids Research, 2018).
Blank lines part the entries; values can stand above or below the molecule they belong to.

Experiments:
[1] = system: KR12C (synthetic, derived from human LL37); test: ITC; details: ITC: 10 mM potassium phosphate pH 7.0, 100 mM KCl, 25 C, 20 uM peptide in cell, 500 uM G4 DNA in syringe, one-site fit. NMR: same buffer, 10% D2O, NOESY at …; for binding signal (fold lower affinity than c-MYC G4): 100 mM KCl, fold order read as BCL-2 then telomere
[2] = system: KR12C (synthetic, derived from human LL37); test: CD melting; details: ITC: 10 mM potassium phosphate pH 7.0, 100 mM KCl, 25 C; 20 uM peptide in cell, 500 uM G4 DNA in syringe; one-site fit. NMR: same buffer, 10% D2O, NOESY at …
[3] = system: c-MYC promoter (Pu27-GQ) in MCF-7 cells; test: Dual-luciferase assay, c-MYC promoter with Pu27-GQ; assay type: cell-based, human; details: MCF-7, 24 h, peptide 0–60 μM
Description: (§1) MCF-7 cells are sub-cultured into 24-well microtiter plates at a cell density of 1 × 10^5 cells/well. Reporter constructs (c-MYC, BCL-2, KRAS and VEGF-A) (500 ng) with and/or without the G-quadruplex scaffolds triggering the expression of Renilla luciferase are co-transfected with 50 ng of pGL3-control vectors (Promega) (used as internal control), encoding firefly luciferase into MCF-7 cells using Lipofectamine® 3000 transfection reagent (Thermo-Fisher Scientific) following manufacturer's recommendations (Supplementary information Section 1). Twenty four hours post-transfection, cells are treated with peptides (FK13, KR12A, KR12B, KR12C, KR12D and KR12E) at an increasing concentration gradient.
(§2) Dual-luciferase assays are performed to examine the intracellular selectivity of peptides for c-MYC quadruplex isomers (Pu27, Myc22 and Pu19) over other oncogenic quadruplexes (BCL-2, VEGF-A and KRAS) of different topologies. The role of peptide-quadruplex complex in oncogene promoter activation is investigated in contrast to the GQ-null promoter constructs into MCF-7 cells ([67]). After 24 h of peptide treatment, cells are washed and lysed into 100 μl 1× Passive lysis buffer (PLB) for 15 min at room temperature. Renilla and firefly Luciferase activities in 25 μl lysate are quantified by Dual-Luciferase® reporter assay system (Promega) as per manufacturer's recommendations. Renilla luciferase enzyme activity is normalized to that of the firefly luciferase activity and luminescence of the peptide-treated samples are normalized to the untreated ones, which yield the fold induction values for Renilla activities by different quadruplex structures in presence and absence of synthetic peptides. Luminescence of each sample is detected in GloMax® 20/20 Single-Tube Luminometer (Promega) in triplicates and averaged from three independent experiments.

[4] = system: BCL-2 promoter (BCL-2-GQ) in MCF-7 cells; test: Dual-luciferase assay, BCL-2 promoter with BCL-2-GQ; assay type: cell-based, human; details: MCF-7, 24 h, peptide 0–60 μM
Description: as §1, §2

[5] = system: c-MYC promoter with Myc22 isomer in MCF-7 cells; test: Dual-luciferase assay, c-MYC promoter under control of Myc22; assay type: cell-based, human; details: MCF-7, 24 h peptide treatment
Description: as §1, §2

[6] = system: c-MYC promoter with Pu19 isomer in MCF-7 cells; test: Dual-luciferase assay, c-MYC promoter under control of Pu19; assay type: cell-based, human; details: MCF-7, 24 h peptide treatment
Description: as §1, §2

[7] = system: VEGF-A promoter (VEGF-A-GQ) in MCF-7 cells; test: Dual-luciferase assay, VEGF-A promoter with VEGF-A-GQ; assay type: cell-based, human; details: MCF-7, 24 h, peptide 0–60 μM
Description: as §1, §2

[8] = system: KRAS promoter (KRAS-GQ) in MCF-7 cells; test: Dual-luciferase assay, KRAS promoter with KRAS-GQ; assay type: cell-based, human; details: MCF-7, 24 h
Description: as §1, §2

[9] = system: native c-MYC quadruplex (Pu27); test: ITC of peptides with native c-MYC quadruplex Pu27 in potassium phosphate buffer; assay type: binding, human; details: 25°C, 20 μM peptide in cell, 500 μM Pu27 in syringe, 10 mM potassium phosphate, 0.1 M KCl, pH 7.0, one-site model
Description: The putative wild-type and truncated G-quadruplex forming sequences (Table 2 and Supplementary Table S1), located at the upstream of c-MYC promoter are reconstituted in 10 mM Potassium Phosphate buffer (pH 7.0) having 100 mM potassium chloride (KCl). The sequences are allowed to evolve G-quadruplex structure in solution by annealing at 95°C followed by gradual cooling. (Supplementary information Section 1).
Thermodynamic attributes of the interaction profiles between peptides and putative quadruplex sequences are analysed by ITC using iTC200 Microcalorimeter at 25°C. Synthetic peptides (FK13, KR12A, KR12B, KR12C, KR12D and KR12E) are diluted to 20 μM in 10 mM Potassium phosphate buffer (10 mM K2HPO4 + 10 mM KH2PO4) containing 0.1 M KCl (pH 7.0). Syringe is filled with 500 μM quadruplex sequences present in the upstream promoter regions of c-MYC (Pu27, Pu19, and Myc22), BCL-2 (Pu30), VEGF-A (Pu22), KRAS (Pu32) oncogenes, and telomere (Tel26) dissolved into the same buffer. We also carried out the experiment for KR12C and Pu27 using MCF-7 nuclear extract as the solvent to mimic the cellular microenvironment and impart macromolecular crowding during binding events. Same concentration of oligonucleotides is injected into the identical buffer or in nuclear extract without peptides to normalize the heat of dilution of peptide-quadruplex association to that of the control before curve-fitting. Oligonucleotides are injected 20 times at an interval of 150 s into the calorimeter cell having the peptides to achieve binding saturation. The heat of reaction per injection (μcal/s) is determined by integration of the peak areas using in-built Origin 7.0 software that provides the best-fit values of enthalpy (ΔH) and entropy (ΔS) of binding, the binding stoichiometry (n), and dissociation constant (Kd) (Supplementary Tables S5(a), S5(b) and S5(c)). Data points are further simulated with ‘one-site’ binding modes (Supplementary information Section 1).

c-MYC quadruplex Pu27 = test: CD melting of free and peptide-bound Pu27; assay type: binding, human
Description: To understand the role of peptides (FK13, KR12A, KR12B, KR12C, KR12D and KR12E) in stabilizing native and truncated isomers of c-MYC G-quadruplex, we have performed temperature-driven CD melting experiments for free and peptide-bound complexes in JASCO-J815 CD spectrometer. We have gradually titrated the peptides into 10 μM of putative quadruplexes and acquired the spectra after 5 min of peptide addition to allow complex formation and equilibration. Samples are heated from 20 to 95°C having the temperature gradient and the delay time of 2.5°C/min and 150 s respectively. Since the quadruplexes unfold at higher temperatures and revert back to their initial conformations upon renaturation, we have assumed a ‘two-state transition’ model (folded and unfolded) to analyze the melting curves and estimated the melting temperatures (Tm) by fitting the data points into sigmoidal curves (Supplementary information Section 1).

[10] = system: KR12E (synthetic, derived from human LL37); test: ITC; details: ITC: 10 mM potassium phosphate pH 7.0, 100 mM KCl, 25 C; 20 uM peptide in cell, 500 uM G4 DNA in syringe; one-site fit. NMR: same buffer, 10% D2O, NOESY at …
[11] = system: KR12A (synthetic, derived from human LL37); test: ITC; details: ITC: 10 mM potassium phosphate pH 7.0, 100 mM KCl, 25 C; 20 uM peptide in cell, 500 uM G4 DNA in syringe; one-site fit. NMR: same buffer, 10% D2O, NOESY at …
[12] = system: KR12D (synthetic, derived from human LL37); test: ITC; details: ITC: 10 mM potassium phosphate pH 7.0, 100 mM KCl, 25 C; 20 uM peptide in cell, 500 uM G4 DNA in syringe; one-site fit. NMR: same buffer, 10% D2O, NOESY at …
[13] = system: KR12B (synthetic, derived from human LL37); test: ITC; details: ITC: 10 mM potassium phosphate pH 7.0, 100 mM KCl, 25 C; 20 uM peptide in cell, 500 uM G4 DNA in syringe; one-site fit. NMR: same buffer, 10% D2O, NOESY at …
[14] = system: KR12E (synthetic, derived from human LL37); test: CD melting; details: destabilizes; ITC: 10 mM potassium phosphate pH 7.0, 100 mM KCl, 25 C; 20 uM peptide in cell, 500 uM G4 DNA in syringe; one-site fit. NMR: same buffer, 10% D2O, NOESY at …
[15] = system: KR12A (synthetic, derived from human LL37); test: CD melting; details: destabilizes; ITC: 10 mM potassium phosphate pH 7.0, 100 mM KCl, 25 C; 20 uM peptide in cell, 500 uM G4 DNA in syringe; one-site fit. NMR: same buffer, 10% D2O, NOESY at …
[16] = molecular target: T1, FK13 (LL37-derived peptide) (Homo sapiens (synthetic, derived from …, UniProt P49913 150-162)); test: ITC; 100 mM KCl; ITC: 10 mM potassium phosphate pH 7.0, 100 mM KCl, 25 C; 20 uM peptide in cell, 500 uM G4 DNA in syringe; one-site fit. NMR: same buffer, 10% D2O, NOESY at 15 C; details: G4, unimolecular
T1 chain: FKRIVQRIKDFLR

Molecule: BCL-2 Pu30 quadruplex
binding signal (fold lower affinity than c-MYC G4) [1]: 3

Molecule: GGAGGGTGGGGAGGGTGGGGAA [Myc22]
binding signal (delta Tm, deg C) [2]: 6.91

Kd [9]: 53.2 µM
ΔG (binding energy) [9]: -5.89 kcal/mol
ΔH (binding enthalpy) [9]: -168 kcal/mol
decrease of the Tm of Pu27 upon peptide binding (c-MYC quadruplex Pu27; 10 μM quadruplex, two-state model): ~30 °C
Molecule: N – KRIVKRIKKWLL – C [KR12E, dodecameric mutant peptide derived from FK13 / LL37]
c-MYC promoter activity [3]: no significant effects
BCL-2 promoter activity [4]: no significant effects
c-MYC promoter activation under control of Myc22 [5]: no regulatory effect
c-MYC promoter activation under control of Pu19 [6]: no regulatory effect
VEGF-A promoter activity [7]: no significant effects
KRAS promoter activity ([8]; peptide 0–60 μM): no significant effects
K A [9]: 18800 M⁻¹
ΔS (entropy) [9]: −544 cal/mol/deg

Kd [9]: 49 µM
ΔG (binding energy) [9]: -5.774 kcal/mol
ΔH (binding enthalpy) [9]: -136 kcal/mol
Molecule: N – KRIVKVIKKWLR – C [KR12D, dodecameric mutant peptide derived from FK13 / LL37]
c-MYC promoter activity [3]: no significant effects
BCL-2 promoter activity [4]: no significant effects
c-MYC promoter activation under control of Myc22 [5]: no regulatory effect
c-MYC promoter activation under control of Pu19 [6]: no regulatory effect
VEGF-A promoter activity [7]: no significant effects
KRAS promoter activity, fold inhibition ([8]; at higher concentration): ~1.6 fold
K A [9]: 20400 M⁻¹
ΔS (entropy) [9]: −437 cal/mol/deg
effect on thermal stability of Pu27 (c-MYC quadruplex Pu27): did not significantly induce thermal stability

Molecule: TGGGGAGGGTGGGGAGGGT [Pu19]
binding signal (delta Tm, deg C) [2]: 10.9

Molecule: TGGGGAGGGTGGGGAGGGTGGGGAAGG [Pu27 c-MYC quadruplex]
Kd [10]: 53.2 µM
Kd [11]: 61.7 µM
Kd [1]: 8.06 µM
Kd ([1]; MCF-7 nuclear extract as solvent (crowding)): 0.901 µM
Kd [12]: 49 µM
Kd [13]: 37.3 µM
binding signal (delta Tm, deg C) [14]: -30
binding signal (delta Tm, deg C) [15]: -30
binding signal (delta Tm, deg C) [2]: 9

Molecule: Tel26 telomeric quadruplex
binding signal (fold lower affinity than c-MYC G4) [1]: 4

Molecule: TGGGGAGGGTGGGGAGGGTGGGGAAGG (structured_DNA) [Pu27 c-MYC quadruplex]
Kd [16]: 34.6 µM
